From patent US20180264282A1, “Specially Designed Kit To Aid Photo-Biologic Eradication Of Staphylococcus Aureus And MRSA In The Nares” (Nomir Medical Technologies, Inc., priority 2017, published 2018)
Several values for one entry are separate records, joined by “and”; a condition that tells them apart may be missing. Equal values may be shown once. Read-outs that look alike come from different tables or passages of the source.

Key:
[1] = test system: S. aureus; details: nasal administration; cited from earlier work
[2] = test system: Staphylococcal furunculosis in the nose; details: 25% aqueous solution, topical; patients with chronic Staphylococcal furunculosis in the nose; cited from earlier work
[3] = test system: nasal carriage of staphylococci; details: in snuff compounds; returned to normal after snuff therapy was discontinued; cited from earlier work
[4] = test system: impetigo and furunculosis; details: spray; cited from earlier work
[5] = test system: sycosis barbae; details: cream to skin lesions and nose; cited from earlier work
[6] = test system: S. aureus; details: after five days of local treatment to the nose, cited from earlier work
[7] = test system: S. aureus; assay: summary of clinical nasal decolonization studies using mupirocin treatments; format: in vivo, human; details: administered three times per day versus twice per day
Excerpt: Overall, the results from clinical studies of nasal decolonization studies using various mupirocin treatments are summarized in the table below: […]

[8] = test system: gram-positive bacteria such as S. aureus; details: cited from earlier work
[9] = test system: gram-negative enterobacteriacea; details: cited from earlier work
[10] = test system: gram-positive enterococci; details: cited from earlier work
[11] = test system: S. aureus; details: cited from earlier work
[12] = test system: pyogenic skin infections; details: 2% water miscible cream three times per day for five days; assessed day seven; cited from earlier work
[13] = test system: S. aureus; details: cited from earlier work; remark: listed apart in the source
[14] = test system: MRSA; details: cited from earlier work
[15] = test system: S. aureus; details: cited from earlier work; remark: listed apart in the source
[16] = test system: S. aureus; details: in paraffin intra-nasally b.i.d. for five days; 72 hours after therapy; cited from earlier work
[17] = test system: S. aureus; details: b.i.d. five day regimen; cited from earlier work
[18] = test system: S. aureus; details: cited from earlier work; remark: listed apart in the source
[19] = three weeks after the treatment phase

Q: What does the source list for Cc1onc(-c2ccccc2)c1C(=O)N[C@@H]1C(=O)N2[C@@H]1SC(C)(C)[C@@H]2C(=O)O [oxacillin]?
A: aerial colonies of S. aureus [1]: decreased the aerial colonies of S. aureus; nasal colonization [1]: decreased nasal colonization

Q: Which treatment outcome [2] does the source give for [Cl][Al]([Cl])[Cl] [aluminum chloride] here?
A: successful treatment outcome for all

Q: With penicillin as the molecule, how does the nasal colonies [3] read?
A: great reduction in nasal colonies

Q: And the “use in treatment of impetigo and furunculosis” value [4]?
A: successful

Q: What about the healing of patients [5] of the same molecule?
A: all but one patient healed to satisfaction

Q: What about the skin carriage ([6]; from 57% before) of the same molecule?
A: 38%

Q: And the “nasal S. aureus carriage” value ([6]; from 97% before)?
A: 37%

Q: With Nc1ccc(S(=O)(=O)Nc2nccs2)cc1 [sulphathiazole] as the molecule, how does the nasal colonies [3] read?
A: great reduction in nasal colonies

Q: Which “outcomes t.i.d. compared with b.i.d.” value [7] does the source give for C/C(=C\C(=O)OCCCCCCCCC(=O)O)C[C@@H]1OC[C@H](C[C@@H]2O[C@H]2[C@@H](C)[C@H](C)O)[C@@H](O)[C@H]1O [mupirocin] here?
A: statistically significantly better outcomes

Q: What about the antibacterial activity [8] of the same molecule?
A: antibacterial activity

Q: And the “cross-resistance with other antibiotics” value [8]?
A: no cross-resistance

Q: What about the antibacterial activity [9] of the same molecule?
A: not substantial activity

Q: What about the antibacterial activity [10] of the same molecule?
A: not substantial activity

Q: What about the effective concentrations [11] of the same molecule?
A: 0.05 to 0.5 µg/mL

Q: What about the “mutant inhibitory concentration (MIC)” value [11] of the same molecule?
A: 0.05 µg/mL

Q: And the “type of effect at MIC” value ([11]; within MIC range cells recover in fresh media, higher concentrations needed for bactericidal effect)?
A: bacteriostatic

Q: And the “patients with infection completely cleared” value [12]?
A: 43 of the 46

Q: And the “patients with S. aureus carriage eliminated from nares” value ([13]; 2% in white soft paraffin four times per day, 18 treated)?
A: all

Q: And the “change in MIC to mupirocin on recolonization” value [13, 19]?
A: without an increase

Q: And the “patients who regained S. aureus in the nares” value [13, 19]?
A: three

Q: What about the “treated patients and staff with nasal carriage eliminated” value ([14]; 2% in paraffin t.i.d. for five days, 40 patients and 32 staff) of the same molecule?
A: all

Q: And the “number of patients with MRSA isolated from wrists” value ([14]; immediately after therapy was completed, from 16 before)?
A: three

Q: And the “time to elimination of nasal carriage” value ([14]; usually)?
A: ≤ 48 h

Q: What about the patients recolonized ([14]; within two weeks after therapy) of the same molecule?
A: Four

Q: And the “participants with S. aureus eradicated” value ([15]; in paraffin t.i.d. for five days, tested four days after the last dose)?
A: 67 of the 69

Q: And the “patients recolonized with S. aureus in the nose” value ([15]; two weeks post therapy)?
A: approximately 40%

Q: What about the “proportion of hand cultures positive for S. aureus” value [16] of the same molecule?
A: 2.9%

Q: And the “patients with nasal carriage eliminated” value [17]?
A: approximately 80%

Q: What about the Elimination after trial ([18]; 2X-3X per day, 3-8 days) of the same molecule?
A: 97%

Q: And the Elimination after trial ([18]; 3X per Day, 5 Days)?
A: 100% and 97%

Q: And the Elimination after trial ([18]; 4X per Day, 5 Days)?
A: 100%

Q: And the Recolonization ([18]; at 3 weeks, 4X per Day, 5 Days)?
A: 16% at 3 weeks

Q: And the Recolonization ([18]; at 4 weeks, 2X per day, 5 days)?
A: 43% at 4 weeks and 22% at 4 weeks and 26% at 4 weeks
